5 compounds from paper PMC6658998, “Pharmacological characterization of the seven human NOX isoforms and their inhibitors” (Redox Biology, 2019) can be followed below.

Data set [1] in a line: in vitro. The following applies: human.
Method: (§1) The effect of the compounds on cell viability was obtained using the Calcein-AM assay. […] Cells suspensions were prepared in HBSS. Cells were preincubated at 50,000 cells/well with compounds for 10 min at room temperature before addition of 4 μM Calcein-AM. Then the plate was incubated at 37 °C for 1 h in the dark. Intracellular Calcein fluorescence was measured using Spectramax Paradigm (Molecular Devices) at 485 nm excitation and 520 nm emission.
For the next data set, the target named is T1, DUOX1 (Homo sapiens, UniProt Q9NRD9).
T1 construct: expressed in transfected cells; host or cells: HEK293, selected with G418 and zeocin
Briefly: Amplex Red/HRP H2O2 detection in DUOX1-expressing HEK293 cells. The format is cell-based.

Data set [2] can be described thus: in vitro. Conditions: Chinese hamster.
Method: as §1
Data set [3] is described as follows: DPPH free radical scavenging assay (absorbance). Conditions: cell-free, DPPH in methanol, 15 min; read-out: Scavenging effect IC50 Absorbance DPPH. (The DPPH test is a chemical assay of radical scavenging.)
Method: This assay allows to detect H2O2 scavengers as well as HRP inhibitors. (iii) Another assay for determining antioxidant activity analyzes serial dilutions of compounds in the presence of free radical DPPH in methanol in transparent 96-well plates (200 μl/well). Absorbance was measured at 540 nm after 15 min incubation in the dark. All scavenging assays were performed with FlexStation 3 Multi-Mode Microplate Reader (Molecular Devices).
Data set [4] has as its target T2, human NOX4 (Homo sapiens, UniProt Q9NPH5).
T2 sequence (Q9NPH5 1-578): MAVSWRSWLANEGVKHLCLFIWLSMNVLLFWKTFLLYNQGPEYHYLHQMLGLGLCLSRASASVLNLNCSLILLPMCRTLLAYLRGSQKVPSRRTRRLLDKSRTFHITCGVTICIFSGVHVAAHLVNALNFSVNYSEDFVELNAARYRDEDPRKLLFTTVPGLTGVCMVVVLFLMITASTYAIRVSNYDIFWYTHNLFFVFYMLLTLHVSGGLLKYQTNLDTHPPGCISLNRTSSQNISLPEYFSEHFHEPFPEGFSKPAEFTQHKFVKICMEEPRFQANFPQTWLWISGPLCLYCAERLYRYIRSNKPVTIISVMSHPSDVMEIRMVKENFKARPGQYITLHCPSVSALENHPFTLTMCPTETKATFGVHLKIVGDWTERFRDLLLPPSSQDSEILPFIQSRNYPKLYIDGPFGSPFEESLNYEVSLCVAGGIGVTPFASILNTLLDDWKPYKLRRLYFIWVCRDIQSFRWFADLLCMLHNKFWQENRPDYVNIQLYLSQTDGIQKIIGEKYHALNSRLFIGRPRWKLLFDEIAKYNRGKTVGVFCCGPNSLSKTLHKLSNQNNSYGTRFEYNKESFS
T2 sequence (P13498 1-195 partner): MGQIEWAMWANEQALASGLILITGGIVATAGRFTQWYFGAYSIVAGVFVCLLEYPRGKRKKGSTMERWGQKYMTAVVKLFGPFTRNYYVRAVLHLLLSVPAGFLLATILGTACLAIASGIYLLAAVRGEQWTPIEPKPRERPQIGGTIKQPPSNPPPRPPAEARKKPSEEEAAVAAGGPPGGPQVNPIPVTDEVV
Briefly: Amplex Red/HRP H2O2 detection in tetracycline-induced NOX4 HEK293 T-REx cells.

The nature of data set [5]: Cell-free CBA assay with 10 μM H2O2 (H2O2 scavenging). The following applies: 10 μM H2O2, 800 μM CBA.
In the next data set the target is T3, human NOX1 (Homo sapiens, UniProt Q9Y5S8).
T3 construct: expressed in transfected cells; host or cells: CHO
T3 sequence (Q9Y5S8 1-564): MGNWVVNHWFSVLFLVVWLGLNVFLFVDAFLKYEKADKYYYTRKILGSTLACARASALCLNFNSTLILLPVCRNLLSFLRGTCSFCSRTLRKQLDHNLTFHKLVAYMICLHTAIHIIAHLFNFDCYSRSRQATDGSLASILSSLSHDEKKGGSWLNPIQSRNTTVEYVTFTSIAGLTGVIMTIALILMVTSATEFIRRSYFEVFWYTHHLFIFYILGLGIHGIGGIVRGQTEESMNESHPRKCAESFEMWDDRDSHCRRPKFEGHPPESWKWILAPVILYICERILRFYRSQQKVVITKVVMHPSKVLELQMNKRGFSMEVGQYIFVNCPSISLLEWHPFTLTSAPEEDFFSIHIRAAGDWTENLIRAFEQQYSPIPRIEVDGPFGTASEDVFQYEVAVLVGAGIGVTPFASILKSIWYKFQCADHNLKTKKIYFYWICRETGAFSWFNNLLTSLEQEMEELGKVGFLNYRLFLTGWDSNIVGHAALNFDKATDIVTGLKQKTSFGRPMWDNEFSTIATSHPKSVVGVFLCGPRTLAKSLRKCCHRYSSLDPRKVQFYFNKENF
T3 sequence (P13498 1-195 partner): T2 sequence (P13498 1-195 partner)
Briefly: WST-1 O2•- detection in NOX1-expressing CHO cells. It is filed as cell-based. The following applies: WST-1, PMA 0.1 μM. In general terms: Tetrazolium dyes change colour on reduction, which living cells bring about.

A further data set concerns the target T4, NOX2 (Homo sapiens, UniProt P04839).
T4 sequence (P04839 2-570 limits assumed): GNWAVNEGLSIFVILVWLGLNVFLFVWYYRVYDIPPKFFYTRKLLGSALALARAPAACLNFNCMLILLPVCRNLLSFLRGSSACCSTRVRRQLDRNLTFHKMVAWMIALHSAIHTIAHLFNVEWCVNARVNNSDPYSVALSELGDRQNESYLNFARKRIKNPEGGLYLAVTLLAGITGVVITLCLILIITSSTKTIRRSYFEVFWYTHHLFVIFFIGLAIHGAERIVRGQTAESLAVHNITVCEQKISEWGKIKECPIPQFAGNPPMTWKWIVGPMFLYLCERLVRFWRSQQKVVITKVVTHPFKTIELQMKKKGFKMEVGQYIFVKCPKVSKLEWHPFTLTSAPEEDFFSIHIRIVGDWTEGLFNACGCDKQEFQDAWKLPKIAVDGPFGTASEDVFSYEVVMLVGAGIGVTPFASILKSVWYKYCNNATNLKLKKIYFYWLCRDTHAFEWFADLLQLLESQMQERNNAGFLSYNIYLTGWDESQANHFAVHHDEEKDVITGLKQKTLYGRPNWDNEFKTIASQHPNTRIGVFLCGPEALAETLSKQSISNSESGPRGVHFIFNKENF
T4 sequence (P13498 1-195 partner): T2 sequence (P13498 1-195 partner)
Briefly: WST-1 O2•- detection in differentiated PLB-985 cells (NOX2).

For data set [6], the target named is T2, human NOX4. Briefly: WST-1 O2•- detection in tetracycline-induced NOX4 HEK293 T-REx cells. The following applies: WST-1, tetracycline 1 μg/mL 24 h. The format is cell-based.
Setting [7] is: Amplex red/HRP, PMA 0.1 μM and ionomycin 1 μM, read-out: IC50 DUOX1 (HEK) AR.

The structures appear in SMILES notation. Like-named read-outs stand apart in the source and are kept apart here. Bounds are passed on as bounds.

T1 sequence (Q9NRD9 22-1551): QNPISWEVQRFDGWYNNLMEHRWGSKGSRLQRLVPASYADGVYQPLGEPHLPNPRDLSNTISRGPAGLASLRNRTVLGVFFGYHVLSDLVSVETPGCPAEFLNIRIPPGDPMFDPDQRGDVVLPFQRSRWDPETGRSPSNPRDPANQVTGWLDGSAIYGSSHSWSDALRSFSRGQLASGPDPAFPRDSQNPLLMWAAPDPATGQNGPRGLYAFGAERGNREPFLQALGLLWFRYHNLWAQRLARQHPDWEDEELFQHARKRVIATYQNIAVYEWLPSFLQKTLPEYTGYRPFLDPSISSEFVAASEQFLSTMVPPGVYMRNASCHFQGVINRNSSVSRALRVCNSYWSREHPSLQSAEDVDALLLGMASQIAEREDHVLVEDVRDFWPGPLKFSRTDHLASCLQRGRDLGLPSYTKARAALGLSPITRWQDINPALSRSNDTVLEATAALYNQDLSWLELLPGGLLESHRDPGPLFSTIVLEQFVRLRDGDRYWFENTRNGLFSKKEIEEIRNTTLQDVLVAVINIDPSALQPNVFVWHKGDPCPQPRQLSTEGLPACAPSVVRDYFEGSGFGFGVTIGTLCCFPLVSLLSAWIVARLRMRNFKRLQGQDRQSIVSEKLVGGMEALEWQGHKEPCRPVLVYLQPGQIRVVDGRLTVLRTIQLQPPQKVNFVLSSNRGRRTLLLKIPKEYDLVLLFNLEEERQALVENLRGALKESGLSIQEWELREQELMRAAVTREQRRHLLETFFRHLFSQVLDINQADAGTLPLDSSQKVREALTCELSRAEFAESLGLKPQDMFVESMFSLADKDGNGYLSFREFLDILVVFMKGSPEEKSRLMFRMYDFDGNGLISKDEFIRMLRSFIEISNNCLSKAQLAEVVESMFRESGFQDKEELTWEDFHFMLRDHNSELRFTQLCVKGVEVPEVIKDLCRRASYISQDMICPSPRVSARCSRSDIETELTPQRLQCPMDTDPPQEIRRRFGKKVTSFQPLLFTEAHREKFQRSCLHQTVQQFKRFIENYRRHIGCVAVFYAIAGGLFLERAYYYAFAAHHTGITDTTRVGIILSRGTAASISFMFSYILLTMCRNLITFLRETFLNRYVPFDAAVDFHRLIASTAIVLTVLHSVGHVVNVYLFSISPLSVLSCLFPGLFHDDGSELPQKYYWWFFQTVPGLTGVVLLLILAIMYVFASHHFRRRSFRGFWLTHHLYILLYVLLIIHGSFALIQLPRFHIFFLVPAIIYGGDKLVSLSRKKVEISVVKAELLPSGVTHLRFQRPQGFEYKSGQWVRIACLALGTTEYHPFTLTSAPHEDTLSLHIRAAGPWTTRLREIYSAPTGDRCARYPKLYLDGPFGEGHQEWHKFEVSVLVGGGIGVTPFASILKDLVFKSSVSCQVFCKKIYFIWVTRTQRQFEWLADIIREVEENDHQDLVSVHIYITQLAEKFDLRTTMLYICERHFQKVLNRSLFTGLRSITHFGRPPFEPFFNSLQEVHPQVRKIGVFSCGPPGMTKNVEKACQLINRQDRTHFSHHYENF
T1 sequence (Q1HG43 whole entry partner): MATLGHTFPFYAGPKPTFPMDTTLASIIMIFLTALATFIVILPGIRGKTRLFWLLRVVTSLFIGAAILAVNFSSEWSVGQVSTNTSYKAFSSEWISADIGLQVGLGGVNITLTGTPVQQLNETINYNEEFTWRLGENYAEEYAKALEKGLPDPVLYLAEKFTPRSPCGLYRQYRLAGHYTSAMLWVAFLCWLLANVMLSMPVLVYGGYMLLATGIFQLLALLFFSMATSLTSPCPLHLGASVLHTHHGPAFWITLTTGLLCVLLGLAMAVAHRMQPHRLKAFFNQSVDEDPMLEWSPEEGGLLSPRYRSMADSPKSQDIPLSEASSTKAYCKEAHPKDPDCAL

In the case of `c1ccc2c(c1)[I+]c1ccccc1-2` [DPI, diphenylene iodonium chloride], the CC50 at 1 h in “in vitro [1]” and in the data set “in vitro [2]” was greater than 50 µM throughout. Moreover, the results for the IC50 (at DUOX1; in [3]) were 1.4 µM and greater than 50 µM, respectively.
As for `O=c1c2ccccc2[se]n1-c1ccccc1` [Ebselen, ebselen], the values for the CC50 at 1 h in the data set “in vitro [1]” (PLB-985 cells) and in “in vitro [2]” (CHO cells) were 3.1 µM and 3.3 µM, respectively. For the same compound, the IC50 at DUOX1 (setting [7]) was 4.2 µM; against human NOX4 [4] it was 4.1 µM; in data set [3], greater than 50 µM; against human NOX1, 31.6 µM. In data set [5] (serial dilutions), the “Effect on CBA signal (direct scavenging of H2O2)” value (from here on “Effect on CBA signal”) is “inhibited the CBA signal”.
Consider `COc1cc(C(C)=O)ccc1O` [Apocynin, apocynin], for which the CC50 at 1 h in the data set “in vitro [1]” and in “in vitro [2]” was greater than 50 µM in each case. Further, the IC50 (on DUOX1 (setting [7]); against NOX2; against human NOX4 [4]; against human NOX4 [6]; in data set [3]; on human NOX1) was greater than 50 µM each time. Further, in [5] (at high concentration), the “Effect on CBA signal” value is listed as “inhibited the CBA signal”.
`COc1cc(C(C)=O)cc(-c2cc(C(C)=O)cc(OC)c2O)c1O` [Diapocynin, diapocynin]: the CC50 at 1 h in “in vitro [1]” (PLB-985 cells) and in “in vitro [2]” (CHO cells) was greater than 50 µM in each case. The IC50 on DUOX1 (setting [7]) is 13.6 µM; at NOX2, greater than 50 µM; against human NOX4 [4] it was greater than 50 µM; against human NOX4 [6], greater than 50 µM; in data set [3] it was greater than 50 µM; on human NOX1, greater than 50 µM. The “Effect on CBA signal” value in data set [5] (serial dilutions) was “inactive”.
For the compound `Cc1c2c(=O)n(-c3ccccc3Cl)[nH]c2cc(=O)n1Cc1ccccn1` [GKT136901], the CC50 at 1 h in the data set “in vitro [1]” (PLB-985 cells) and in the data set “in vitro [2]” (CHO cells) was greater than 50 µM each time. For the same compound, the IC50 on DUOX1 (setting [7]) is 5.9 µM; at NOX2 it was greater than 50 µM; at human NOX4 [4], 2.7 µM; on human NOX4 [6], greater than 50 µM; in data set [3], 21.7 µM; against human NOX1, greater than 50 µM. The “Effect on CBA signal” value in data set [5] (serial dilutions) is reported as “not scavenging H2O2”.

The IC50 is the point on the concentration scale where inhibition reaches its midpoint.
